# Results: PMC3925085, “Subditine, a New Monoterpenoid Indole Alkaloid from Bark of Nauclea subdita (Korth.) Steud. Induces Apoptosis in Human Prostate Cancer Cells” (PLoS ONE, 2014)
# Assays:
# [1] = system: PC-3 human prostate cancer cells; assay: MTT cell proliferation assay, PC-3; type: cell-based
# Method: (§1) Human prostate normal cell line (RWPE-1) and human prostate cancer cell lines; LNCaP and PC-3, were purchased from the American Type Culture Collection (ATCC, Manassas, Virginia, USA). LNCaP and PC-3 cells were grown in Roswell Park Memorial Institute medium (RPMI) supplemented with 10% heat-inactivated fetal bovine serum (FBS, Sigma-Aldrich, St. Louis, MO), 1% penicillin and streptomycin. RWPE-1 cells were maintained in Keratinocyte Serum Free Medium (K-SFM, ATCC) supplemented with bovine pituitary extract (BPE) and human recombinant epidermal growth factor (EGF). Mediums were supplemented with 10% heat-inactivated fetal calf serum (Sigma.), 100 U/ml penicillin and […] streptomycin (Flowlab, Sydney, Australia). All cells were maintained in a humidified atmosphere of 5% CO2 in air at 37°C incubator.
# (§2) The anti-proliferative activity was evaluated by performing MTT assays as previously described with minor modifications. Briefly, cells were seeded 24 hours prior to treatment in a 96-well plate at 5×10^4 cells/well in order to obtain 70% to 80% confluent cultures. The compounds were dissolved in DMSO (Sigma Chemical Co., St. Louis, Missouri, USA) followed by a 2×serial dilution for 10 points ranged from 0.825 µM to 100 µM. The 96-well plate was incubated for 24 hours at 37°C in a humidified atmosphere with 5% CO2. At the end of incubation, 50 µl of MTT solution (2 mg/ml; Sigma) was added to each well. The plate was then incubated for 4 hours. All medium was removed and the purple formazan crystal formed at the bottom of the wells was dissolved with 200 µl DMSO for 20 minutes. The absorbance at 570 nm was read on a spectrophotometric plate reader (Hidex). The proportion of surviving cells was calculated as: […]
# (§3) Dose-response curves were constructed to obtain the IC50 values. Experimental data were derived from 3 independent experiments. The selectivity index was obtained by mean IC50 RWPE-1/mean IC50 of LNCaP or PC-3.
# [2] = system: RWPE-1 human normal prostate epithelial cells; assay: MTT cell proliferation assay, RWPE-1; type: cell-based; settings: 24 hours, RWPE-1 normal cells, mean ± S.D.
# Method: as §1, §2, §3
# [3] = system: caspase-3/7 in PC-3 cells; assay: Caspase-Glo 3/7 bioluminescent assay, PC-3; type: cell-based, human
# Method: A time-dependent study of caspase-3/7, -8, and -9 activities was performed in triplicates using assay kits Caspase-Glo 3/7, 8, and 9 (Promega Corp.,Madison,WI, USA) on white 96-well microplate as described previously. A total of 10,000 cells per well was seeded and treated with […] of subditine (1) for 6, 12, 18, 24, and 30 hours. Then, 100 µL of the caspase-Glo reagent was added, incubated at room temperature for 30 minutes and measured using Tecan Infinite 200 Pro (Tecan, Mannedorf, Swizerland) microplate reader.
# [4] = system: intracellular ROS in LNCaP cells; assay: ROS assay (DHE dye, Cellomics HCS), LNCaP; type: cell-based, human; settings: LNCaP, 12.5, 25, 50 µM, 24 h
# Method: The production of intracellular ROS was detected as described previously. The DHE dye reagent is converted to fluorescent ethidium and intercalates into DNA in response intracellular ROS. Briefly, 10 mM DHE stock solution (in methanol) was diluted 500-fold in HBSS without serum or other additives to yield a 20 µM working solution. After exposure to subditine (1), the cells in the 96-well black plate was washed twice with HBSS and then incubated in 100 µL working solution of DHE at 37°C for 30 minutes. Fluorescence of DCF in each cell was captured, extracted and analyzed with ArrayScan II Data Acquisition and Data Viewer version 3.0 (Cellomics).
# LNCaP cells = assay: Cellomics multiparameter cytotoxicity assay, LNCaP; type: cell-based, human
# Method: Cytotoxicity 3 kit (Thermo Scientific) was used as described previously. Briefly, 24 hours after subditine (1) treatment, MMP dye and the cell permeability dye were added to live cells and incubated for 30 minutes at 37°C. Cells were fixed, permeabilized, blocked with 1x blocking buffer before probing with primary cytochrome c and secondary DyLight 649 conjugated goat anti-mouse IgG antibodies for 1 hour each. Hoechst 33342 was added into the staining solution. Plates were then analyzed using the ArrayScan high content screening (HCS) system (Cellomics, PA, USA). Data were captured, extracted and analyzed with ArrayScan II Data Acquisition and Data Viewer version 3.0.
# PC-3 cells = assay: Hoechst 33342 / phalloidin staining, PC-3; type: cell-based, human; settings: PC-3, 12.5 µM and 25 µM, 24 hours, P<0.05
# Method: Cytoskeletal and nuclear morphological changes of LNCaP and PC-3 cells were examined by phalloidin (detects F-actin) and Hoechst 33342 staining. […] At concentration 12.5 µM and 25 µM, nuclear condensation and fragmentation were detected at 24 hours after subditine (1) treatment (Figure 4).
# Figure 3 Subditine (1) induced cytoskeletal rearrangement at the peripheral. LNCaP and PC-3 cells were treated with subditine (1) at various concentrations for 24 hours. Cells were fixed and stained with Hoechst (blue) and phalloidin (red) dye which stained nucleus and polymerized actin (F-actin), respectively. Bar chart showing average fluorescent intensity of phalloidin (mean ± S.D.; *p<0.05).
# Figure 4 Subditine (1) treatment leads to nuclear DNA fragmentation. LNCaP and PC-3 cells were treated with subditine (1) (12.5 µM and 25 µM) for 24 h. Cells were then fixed and stained with Hoescht 33342 (blue). Red circles indicate DNA shrinkage or fragmentation. Images were captured using Cellomic arrayscan system.
# [5] = system: Bcl-xL expression in PC-3 cells; assay: Western blotting, Bcl-xL in PC-3; type: cell-based, human; settings: 24 h
# Method: (§4) To determine protein expression, 1×10^6 cells/mL were seeded and treated with subditine (1) or paclitaxel for 24 h. Whole cell extracts were prepared as previously described. Briefly, cells were collected, lysed and resolved on 10% SDS-polyacrylamide gels. After electrophoresis, the proteins were transferred to PVDF membranes (Millipore), blocked with 5% nonfat dry milk in PBS-T (0.05% Tween 20) for 1 hour at room temperature. Membranes were probed with primary rabbit anti-Bcl-2, Bcl-xL or p53 antibodies followed by horseradish peroxidase (HRP)-conjugated secondary anti-rabbit antibody (Cell Signaling Technology Inc., CA, USA). Membranes were stripped and reprobed with mouse anti-β-actin antibody as loading control (Santa Cruz Biotechnology Inc.). Protein-antibody complexes were detected with Amersham ECL prime Western blotting detection reagent (GE Healthcare, USA).
# [6] = system: p53 expression in PC-3 cells; assay: Western blotting, p53 in PC-3; type: cell-based, human; settings: PC-3 (p53-null), 24 h
# Method: as §4
# [7] = system: Bcl-2 expression in LNCaP cells; assay: Western blotting, Bcl-2 in LNCaP; type: cell-based, human; settings: 24 h
# Method: as §4
structure (smiles),measurement,setting,value
"Cc1ncc2c(=O)n3c(cc2c1C=O)-c1[nH]c2ccccc2c1CC3 [Subditine, subditine]",IC50,"[1]; Homo sapiens, MTT, 24 hours, PC-3, mean ± S.D.",14 ± 0.32 µM
same,folds more potent against PC-3 than normal prostate cells RWPE-1,[1]; PC-3 vs RWPE-1,2.2 folds
same,selectivity index (SI) PC-3,[1]; mean IC50 RWPE-1/mean IC50 of PC-3,2.18
same,IC50,[2],30.48 ± 0.08 µM
same,caspase-3/7 activity,"[3]; PC-3, after 12 and 24 hours exposure, 12.25 µM",significant increase
same,time of peak caspase-3/7 activity,"[3]; PC-3, time points 6-30 hours",18 h
same,ROS production (DCF/DHE fluorescence level),[4],significantly increased in a dose-dependent manner
same,cytochrome c release (cytosolic staining),"LNCaP cells; 24 h, compared to control",increased fluorescent-staining in the cytosol
same,membrane permeability,"LNCaP cells; 24 h, compared to control",higher membrane permeability
same,mitochondrial membrane potential (MMP) fluorescence intensity,LNCaP cells; 24 hours,dose-dependent reduction
same,nuclear intensity (apoptotic chromatin changes),PC-3 cells,significantly increased
same,Bcl-xL protein expression,"[5]; PC-3, 12.5 µM, compared to control",no significant change
same,Bcl-xL protein expression,"[5]; PC-3, 25 and 50 µM",drastically down-regulated
same,p53 expression,[6],did not restore or enhance
same,Bcl-2 expression,[7],down-regulation
